Measured values as given in patent US9707178B2, “Pharmaceutical composition” (Lek Pharmaceuticals, d.d., priority 2006, dated 2017).

Experiments:
[1] = pH of excipient measured by a glass electrode, 1 g in 100 g of water at room temperature; type: physicochemical; conditions: aqueous solution or suspension
Text: In general we observed a best stabilization where each of the constituents being incorporated into a composition has a pH less than 9, preferably less than 8; but can have pH above 5. […] We have concluded that the excipients, being in contact with olmesartan medoxomil, being incorporated into a composition should preferably have a pH less that 8 if measured by a glass electrode in an aqueous solution or suspension containing 1 g of said excipient in 100 g of water at room temperature. Thus the pH of excipents uses in examples is as follows; lactose: about 5.2, L-HPC: about 6.7, MCC: about 6.7, stearic acid: about 5.4, Mg stearate: about 9.5, coating suspension (Example 3): about 6.6.

[2] = Stability of bulk olmesartan medoxomil in solution at different pH; type: physicochemical
Description: The main degradation product is olmesartan acid. […] In a solution at pH=7 the amount of formed olmesartan acid increases by 0.5% in 24 hours, while in 1M HCl the amount increases by approximately 6%. The amounts of individual and total impurities are measured in area % and determined by HPLC using the following procedure: a sample solution was prepared by diluting quantity of pulverized tablet equivalent to 25 mg of olmesartan medoxomil in 50 ml volumetric flask to volume with diluent (Eluent A+Eluent B=50%/50%). Column Waters Xbridge C18, 150×4.6 mm, 3.5 μm was used and eluted by Eluent A (0.025 M KH2PO4 adjusted to pH=2.5 with 50% H3PO4) and Eluent B (acetonitrile) with following gradient: A:B=100:0, from 15 to 30 minutes A:B=70:30, after 30 min A.B=0:100. Flow rate was […], Injection volume was 20 μl, column temperature was 30° C., detection wavelength at 225 nm.

CCCCCCCCCCCCCCCCCC(=O)[O-].CCCCCCCCCCCCCCCCCC(=O)[O-].[Mg+2] [Mg stearate]
pH of excipient [1]: about 9.5

OC[C@H]1O[C@@H](O[C@H]2[C@H](O)[C@@H](O)C(O)O[C@@H]2CO)[C@H](O)[C@@H](O)[C@H]1O (stereo partly shown) [lactose]
pH of excipient [1]: about 5.2

CCCc1nc(C(C)(C)O)c(C(=O)OCc2oc(=O)oc2C)n1Cc1ccc(-c2ccccc2-c2nnn[nH]2)cc1 [olmesartan medoxomil, 4-(1-hydroxy-1-methylethyl)-2 propyl-1-[[2′-(1H-tetrazol-5-yl) [1,1′-biphenyl]-4-yl]methyl]-1H-imidazole-5-carboxylic acid (5-methyl-2-oxo-1,3-dioxol-4-yl)methyl ester]
Hydrolysis at basic conditions ([2]; basic conditions): almost completely hydrolyzes | pH range in which most stable ([2]; bulk): 3-5 | Increase of amount of formed olmesartan acid ([2]; in 1M HCl): approximately 6% | Increase of amount of formed olmesartan acid ([2]; solution at pH=7, 24 hours): 0.5%

CCCCCCCCCCCCCCCCCC(=O)O [stearic acid]
pH of excipient [1]: about 5.4
